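Step 1: Grow cells in 96-well plates. Step 2: Expose to compound for 48 hours at 5 concentrations. Step 3: Interpolate endpoints linearly; if unreached, use highest concentration. TGI marks complete inhibition of growth.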
Columns and labels:
Test in all cases: growth of human tumour cells (NCI), 48 h
SK-MEL-2 melanoma = system: SK-MEL-2 melanoma
HOP-62 NSCLC = system: HOP-62 NSCLC
NCI-H23 lung = system: NCI-H23 lung
PC-3 prostate = system: PC-3 prostate
NCI-H460 lung = system: NCI-H460 lung
OVCAR-3 ovarian = system: OVCAR-3 ovarian
U251 CNS = system: U251 CNS
LOX IMVI melanoma = system: LOX IMVI melanoma
HS 578T breast = system: HS 578T breast
HL-60(TB) leukemia = system: HL-60(TB) leukemia
KM12 colon = system: KM12 colon
CAKI-1 renal = system: CAKI-1 renal
SW-620 colon = system: SW-620 colon
M14 melanoma = system: M14 melanoma
UACC-257 melanoma = system: UACC-257 melanoma
NCI-H226 lung = system: NCI-H226 lung
MDA-N = system: MDA-N
DU-145 prostate = system: DU-145 prostate
RPMI-8226 leukemia = system: RPMI-8226 leukemia
RXF 393 renal = system: RXF 393 renal
BT-549 breast = system: BT-549 breast
OVCAR-5 ovarian = system: OVCAR-5 ovarian
SK-MEL-28 melanoma = system: SK-MEL-28 melanoma
SF-268 CNS = system: SF-268 CNS
IGROV1 ovarian = system: IGROV1 ovarian
SK-MEL-5 melanoma = system: SK-MEL-5 melanoma
OVCAR-8 ovarian = system: OVCAR-8 ovarian
CCRF-CEM leukemia = system: CCRF-CEM leukemia
HCT-116 colon = system: HCT-116 colon
A549 NSCLC = system: A549 NSCLC
SNB-19 CNS = system: SNB-19 CNS
MOLT-4 leukemia = system: MOLT-4 leukemia
T-47D breast = system: T-47D breast
HOP-92 NSCLC = system: HOP-92 NSCLC
NCI/ADR-RES ovarian = system: NCI/ADR-RES ovarian
MDA-MB-231 breast = system: MDA-MB-231 breast
OVCAR-4 ovarian = system: OVCAR-4 ovarian
HT29 colon = system: HT29 colon
COLO 205 colon = system: COLO 205 colon
HCT-15 colon = system: HCT-15 colon
UACC-62 melanoma = system: UACC-62 melanoma
SN12C renal = system: SN12C renal
A498 renal = system: A498 renal
MDA-MB-435 = system: MDA-MB-435
SR leukemia = system: SR leukemia
ACHN renal = system: ACHN renal
HCC-2998 colon = system: HCC-2998 colon
SNB-75 CNS = system: SNB-75 CNS
SK-OV-3 ovarian = system: SK-OV-3 ovarian
786-0 renal = system: 786-0 renal
EKVX NSCLC = system: EKVX NSCLC
MCF7 breast = system: MCF7 breast
MALME-3M melanoma = system: MALME-3M melanoma
SF-539 CNS = system: SF-539 CNS
SF-295 CNS = system: SF-295 CNS
TK-10 renal = system: TK-10 renal
NCI-H522 lung = system: NCI-H522 lung
K-562 leukemia = system: K-562 leukemia
UO-31 renal = system: UO-31 renal

Measured: TGI

N=c1oc2ccc3ccccc3c2cc1C(N)=O
99.7 µM: T-47D breast
49.4 µM: SK-MEL-2 melanoma
63 µM: KM12 colon
90.6 µM: HCC-2998 colon
70.8 µM: IGROV1 ovarian
54.6 µM: HS 578T breast
not listed: EKVX NSCLC | MCF7 breast | MALME-3M melanoma | SF-539 CNS | SF-295 CNS | TK-10 renal | NCI-H522 lung | K-562 leukemia | UO-31 renal
> 100 µM: all other assays above

COc1ccc2c(c1)C(N)=C(c1ccccc1)C2=O
70 µM: SNB-75 CNS
56.3 µM: HS 578T breast
not listed: RXF 393 renal | K-562 leukemia | UO-31 renal
> 100 µM: all other assays above

O=C(CCN1CCCC1)Nc1ccc2sc3ccccc3c(=O)c2n1
18.6 µM: MDA-MB-231 breast
21.7 µM: OVCAR-4 ovarian
17.9 µM: A549 NSCLC
20.5 µM: OVCAR-3 ovarian
19.6 µM: HOP-62 NSCLC | SNB-19 CNS
20.1 µM: EKVX NSCLC | MDA-N
22.9 µM: NCI-H23 lung
18.5 µM: U251 CNS
18.1 µM: SF-539 CNS
18.3 µM: KM12 colon
17.2 µM: UACC-62 melanoma
6.37 µM: HT29 colon
18.2 µM: HS 578T breast | SNB-75 CNS
16.4 µM: SK-MEL-5 melanoma | HCT-116 colon
16.8 µM: HCT-15 colon
19.9 µM: SW-620 colon | SK-MEL-28 melanoma
23.7 µM: SR leukemia
16.7 µM: CAKI-1 renal
21.4 µM: NCI/ADR-RES ovarian
> 31.6 µM: SF-268 CNS | T-47D breast
18 µM: SK-MEL-2 melanoma
21.9 µM: RPMI-8226 leukemia
21.3 µM: MCF7 breast | K-562 leukemia | SN12C renal
17.6 µM: M14 melanoma | MALME-3M melanoma
17.5 µM: 786-0 renal
27.8 µM: SF-295 CNS
25.7 µM: DU-145 prostate
19 µM: OVCAR-5 ovarian
33.7 µM: A498 renal
23.6 µM: IGROV1 ovarian
17 µM: UACC-257 melanoma | HCC-2998 colon
15.2 µM: NCI-H522 lung
19.2 µM: BT-549 breast
29.2 µM: NCI-H226 lung
17.8 µM: MDA-MB-435
16.3 µM: HL-60(TB) leukemia | COLO 205 colon | UO-31 renal | ACHN renal
60.4 µM: HOP-92 NSCLC
14.3 µM: SK-OV-3 ovarian
25.8 µM: CCRF-CEM leukemia
17.7 µM: MOLT-4 leukemia
17.3 µM: OVCAR-8 ovarian
22.2 µM: PC-3 prostate

O=[N+]([O-])c1ccc2nc(-c3ccccn3)c(-c3ccccn3)nc2c1
not listed: LOX IMVI melanoma | MDA-MB-231 breast | K-562 leukemia
> 100 µM: all other assays above

Source: PubChem BioAssay (NCI)
